Test results taken from patent US20210275596A1, “APPLICATION OF GENE PROFILE FOR CELLS ISOLATED USING FRESH-TRACER” (CELL2IN, INC., priority 2018, published 2021).

How the values were obtained:
Type in all cases: cell-based, human
hES-MSCs [1] = assay: Chemotaxis to PDGF-AA; conditions: for effect on chemoattraction to PDGF: naive hES-MSCs
Protocol: FIGS. 4A, 4B, 4C and 4D are graphs showing analyses of colony-forming unit fibroblasts (CFU-F; n=15), limiting dilution by replating primary CFU colonies (n=6), chemotaxis to stromal derived factor-1α (SDFα; 150 ng/mL, n=8), and chemotaxis to 10 ng/mL platelet-derived growth factor (PDGF)-AA in the absence or presence of STI571 (0.5 μg/mL), a PDGFR inhibitor (n=8).
At this time, for differentiation media, the cells were maintained and cultured in each of adipogenic induction medium (DMEM supplemented with 5% FBS, […], […], […] and 0.5 mM isobutylmethylxanthine), osteogenic induction medium (DMEM supplemented with 5% FBS, […], […], and 10 mM glycerophosphate), and chondrogenic induction medium (e.g., StemPro chondrogenesis, Invitrogen). FIG. 3 is a graph showing the results of qPCR performed to quantify lineage-specific genes in non-differentiated(Non) FR^High cells and FR^Low cells and differentiated(Diff) FR^High cells and FR^Low cells. Additionally, FR^High hES-MSCs had approximately 4.7- and 4.9-fold higher numbers of CFU-F than did FR^Mild and FR^Low cells, respectively (FIG. 4A).

hES-MSCs [2] = assay: GSH depletion or supplementation: clonogenic and migration capacities
HeLa cells [3] = assay: Mitochondrial FR monitoring with MitoFreSH-tracer
Description: The mitochondrion is the major site of endogenous ROS generation during normal oxidative metabolism. Cytosolic GSH is transported to the mitochondria, preventing macromolecular damage and modulating ROS-induced signaling. To further analyze the FR heterogeneity in the cytoplasm, a mitochondria-targeting FreSH-tracer derivative, designated MitoFreSH-tracer was synthesized by attaching a triphenylphosphonium moiety to a FreSH-tracer.

HeLa cells [4] = assay: FR monitoring in cells loaded with FreSH-tracer; conditions: for change of FR: HeLa cells equilibrated with 5 μM FreSH-tracer for 2 hours
Protocol: To utilize a FreSH-tracer for GSH monitoring in living cells, its cytotoxicity was evaluated. […] HeLa cells were equilibrated with treatment of 5 μM FreSH-tracer for 2 hours. […] The FR in the nucleus was about 1.5- to 2-fold higher than that of the cytoplasm.
The in vitro experiments described above established that H2O2 treatment diminishes only the FRGSH, while having little effect on the FRPSH. […] Thus, the FreSH-tracer can report the real-time dynamic changes of GSH concentration in live cells under oxidative stress.

In the case of Cc1ccc(NC(=O)c2ccc(CN3CCN(C)CC3)cc2)cc1Nc1nccc(-c2cccnc2)n1 [STI571], the “effect on PDGF chemotactic activity of FR^High cells” value (hES-MSCs [1]; STI571 0.5 μg/mL, 10 ng/mL PDGF-AA) was “significantly blocked”.
CCOC(=O)CNC(=O)[C@H](CS)NC(=O)CC[C@H](N)C(=O)O [GSH-EE, glutathione ethyl ester] was tested, and the “effect on chemoattraction to PDGF” value (hES-MSCs [1]) was “activation” and the “effect on declined cellular functions” value (hES-MSCs [2]; FR^Low hES-MSCs) was “reversed”.
For antimycin A, the “change of mitochondrial FR” value (HeLa cells [3]) was “concentration-dependent decrease”.
CCCCS(=N)(=O)CCC(N)C(=O)O (centres unmarked) [BSO, buthionine sulfoximine] was tested, and the “effect on chemoattraction to PDGF” value (hES-MSCs [1]) was “significant repression” and the “effect on enhanced clonogenic and migration capacities and related gene upregulation” value (hES-MSCs [2]; FR^High hES-MSCs) was “severely impaired”.
With O[C@@H](CS)[C@@H](O)CS [DTT] the “change of FR” value (HeLa cells [4]) was “rapidly increased”.
For O=[N+]([O-])c1ccc(Cl)c([N+](=O)[O-])c1 [1-chloro-2,4-dinitrobenzene], the “restoring of FR after diamide” value (HeLa cells [4]; GSH-depleted HeLa cells) was “abrogated”.
In the case of CCN1C(=O)C=CC1=O [NEM], the “change of FR” value (HeLa cells [4]) was “gradually decreased”.
With CN(C)C(=O)/N=N/C(=O)N(C)C [diamide] the “change of FR” value (HeLa cells [4]) was “gradually decreased” and the “change of mitochondrial FR” value (HeLa cells [3]) was “decreased”.
